Starred links: 1 amine or outer side, 2 acyl side, 3 side chain; linkers in the order of their positions; H or OH if unused. Residues, ends and D or L forms follow the SMILES beside them. Groups on a side chain read outwards from the residue. *: point of attachment. TTDA(Palmitoyl) = CCCCCCCCCCCCCCCC(=O)NCCCOCCOCCOCCCN*; Suc = O=C(CCC(=O)[*:2])[*:1]
Tested on: urinary metabolites
Assay: NMR-based metabolomics of urine of DIO mice
Format: in vivo, C57BL/6 mice
Design: key to DMA, Mean / DMG, Mean / MA, Mean / TMA, Mean / acetate, Mean / allantoin, Mean / carnitine, Mean / choline, Mean / cis-aconitate, Mean / creatine+creatinine, Mean / creatine, Mean / creatinine, Mean / ethanolamine, Mean / formate, Mean / galactose, Mean / glucose, Mean / glycine, Mean / lactate, Mean / succinate, Mean / vinylacetylglycine, Mean: TSA-normalized intensity of the metabolite's representative NMR signal
Description: Urine samples for NMR-based metabolomics were collected prior to the start of the interventions and at the end of the experiment. For overnight urine collection (from 5 pm to 8 am), the mice were housed in individual metabolic cages (Tecniplast, Buguggiate, Italy) without access to food. Samples were collected with the addition of NaN3 and stored at -80°C until NMR analysis.
The urine samples were thawed at room temperature and centrifuged at 13 684 x g for 5 min prior to the NMR experiments. A 200-μl aliquot of supernatant was diluted with 340 μl of H2O mixed with 60 μl of phosphate buffer (1.5 M KH2PO4 in D2O containing 2 mM NaN3 and 0.1% trimethylsilyl propionic acid (TSP), pH 7.4) and transferred to a 5-mm NMR tube. The NMR data were acquired with a 600 MHz Bruker Avance III spectrometer (Bruker BioSpin, Rheinstetten, Germany) equipped with a 5-mm TCI cryogenic probe head. All of the experiments were performed at 300 K. Automatic tuning, matching, shimming and adjusting of the 90° pulse length were performed for each sample.
As mouse urine naturally contains urinary proteins, the NMR spectra were acquired using a Carr-Purcell-Meiboom-Gill (CPMG) pulse sequence with water presaturation (Bruker pulse sequence cpmgpr1d) to eliminate the strong protein background. […] For better metabolite identification, a short J-resolved experiment with presaturation (NS = 2, SW = 16 ppm, TD = 8k, number of increments = 40, SW = 78.125 Hz in the indirect dimension, and relaxation delay = 2 s) was executed for all samples. Additional two-dimensional ^1H-^1H correlation spectroscopy (COSY) and ^1H-^13C heteronuclear multiple-quantum correlation (HMQC) experiments (Bruker pulse sequences cosygpprqf and hmqcphpr) were performed for selected samples.
The acquired data were processed using Topspin 3.2 software (Bruker BioSpin, Rheinstetten, Germany). Line broadening of 0.3 Hz was applied on free induction decays (FIDs) prior to Fourier transformation. The spectra were automatically phased, baseline corrected and referenced to the signal of TSP (0.00 ppm).
The assignment of individual metabolites was achieved by comparing the proton spectra with the spectra of pure metabolites using Chenomx NMR Suite 7.6 (Chenomx Inc., Edmonton, AB, Canada), the HMDB database and previously published metabolomic data. The identification of metabolites was supported through J-resolved and COSY experiments and, if possible, confirmed using carbon chemical shifts extracted from the HMQC spectra.
For quantitation of individual metabolites, the CPMG spectra were uniformly binned in the range of 0.10–10.00 ppm to 0.01-ppm intervals using AMIX software (Bruker BioSpin, Rheinstetten, Germany). This procedure reduced the dimensionality of the data, eliminated chemical shift variations and thus simplified the reproducible automatic quantification. Regions corresponding to water (4.60–4.90 ppm) and urea (5.60–6.00 ppm) were removed prior to analysis. As the dilutions of the original urine samples differed (due to the differences in water intake during urine collection), all of the spectra were normalized to the total spectral area (TSA). For each identified metabolite, one representative signal was chosen and then quantified as the sum of appropriate adjacent 0.01-ppm bins to cover the whole signal width. The metabolite concentration was expressed as the TSA-normalized intensity of the respective signal. For selection of an appropriate statistical method (parametric or non-parametric) the Lilliefors test of normality was performed. […] Metabolite alterations with a P < 0.05 were considered statistically significant. Statistical analysis was performed using Matlab software (“MATLAB version 8.6 (R2015b). Natick, Massachusetts: The MathWorks Inc., 2015.,” n.d.). […]

[1] = urine NMR signal, DIO mice, group mean
[2] = urine of DIO mice, NMR metabolomics, difference of analog mean vs saline mean

CCCCCCCCCCCCCCCC(=O)NCCCOCCOCCOCCCNC(=O)CCC(=O)NCCCC[C@H](NC(=O)[C@@H](NC(=O)[C@H](CCC(=O)O)NC(=O)[C@H](CCSC)NC(=O)[C@H](CO)NC(=O)[C@H](Cc1c[nH]cn1)NC(=O)[C@H](CCCNC(=N)N)NC(=O)[C@H](Cc1c[nH]cn1)NC(=O)[C@@H](NC(=O)[C@H](CCCNC(=N)N)NC(=O)[C@@H](N)CO)[C@@H](C)O)[C@@H](C)CC)C(=O)N[C@H](C(=O)N1CCC[C@H]1C(=O)N[C@@H](CC(=O)O)C(=O)N[C@H](C(=O)N[C@@H](CC(N)=O)C(=O)N1CCC[C@H]1C(=O)N[C@@H](C)C(=O)N[C@@H](Cc1c[nH]c2ccccc12)C(=O)N[C@@H](Cc1ccc(O)cc1)C(=O)N[C@@H](C)C(=O)N[C@@H](CO)C(=O)N[C@@H](CCCNC(=N)N)C(=O)NCC(=O)N[C@H](C(=O)N[C@@H](CCCNC(=N)N)C(=O)N1CCC[C@H]1C(=O)N[C@H](C(=O)NCC(=O)N[C@@H](CCCNC(=N)N)C(=O)N[C@@H](Cc1ccccc1)C(N)=O)C(C)C)[C@@H](C)CC)[C@@H](C)CC)[C@@H](C)O [analog 2] (H-SRTHRHSMEIK([Suc-TTDA(Palmitoyl)])TPDINPAWYASRGIRPVGRF-NH2; N-terminus assumed)
2-OG (2.45 ppm), Mean [1]: 11.956 | 2-OG (3.01 ppm), Mean [1]: 10.103 | 2-PY (8.33 ppm), Mean [1]: 0.992 | 3-indoxylsulfate (7.51 ppm), Mean [1]: 1.459 | 3-indoxylsulfate (7.71 ppm), Mean [1]: 0.842 | 4-PY (7.97 ppm), Mean [1]: 1.710 | 4-PY (8.55 ppm), Mean [1]: 0.484 | DMA, Mean [1]: 5.145 | DMG, Mean [1]: 1.928 | MA, Mean [1]: 2.920 | MNA (8.90 ppm), Mean [1]: 0.407 | MNA (8.97 ppm), Mean [1]: 0.391 | MNA (9.265 ppm), Mean [1]: 0.413 | MNA-Nox (7.75 ppm), Mean [1]: 0.969 | MNA-Nox (8.13 ppm), Mean [1]: 0.725 | MNA-Nox (8.49 ppm), Mean [1]: 0.458 | MNA-Nox (8.75 ppm), Mean [1]: 0.434 | N-carbamoylalanine (2.38 ppm), Mean [1]: 10.919 | N-carbamoylalanine (3.31 ppm), Mean [1]: 9.060 | N-isovalerylglycine + oxovalerate (0.92 ppm), Mean [1]: 15.384 | TMA, Mean [1]: 10.220 | acetate, Mean [1]: 4.384 | allantoin, Mean [1]: 21.272 | carnitine, Mean [1]: 6.113 | choline, Mean [1]: 2.053 | cis-aconitate, Mean [1]: 9.014 | citrate (2.55 ppm), Mean [1]: 31.737 | citrate (2.69 ppm), Mean [1]: 28.801 | creatine+creatinine, Mean [1]: 23.782 | creatine, Mean [1]: 6.742 | creatinine, Mean [1]: 11.494 | ethanolamine, Mean [1]: 7.749 | formate, Mean [1]: 0.205 | fumarate, Mean [1]: 0.167 | galactose, Mean [1]: 0.806 | glucose, Mean [1]: 3.486 | glycine, Mean [1]: 6.185 | hexanoylglycine + acids (0.88 ppm), Mean [1]: 15.251 | hippurate (7.55 ppm), Mean [1]: 4.857 | hippurate (7.64 ppm), Mean [1]: 2.465 | hippurate (7.84 ppm), Mean [1]: 5.092 | lactate, Mean [1]: 7.122 | multiplet acids (1.6 ppm), Mean [1]: 12.357 | putrescin, Mean [1]: 8.544 | succinate, Mean [1]: 12.532 | taurine (3.27 ppm), Mean [1]: 20.714 | taurine (3.43 ppm), Mean [1]: 17.197 | trigonelline (8.84 ppm), Mean [1]: 0.310 | trigonelline (9.13 ppm), Mean [1]: 0.125 | vinylacetylglycine, Mean [1]: 3.494 | 2-OG (2.45 ppm), Saline/analog % [2]: 0.017% | 2-OG (3.01 ppm), Saline/analog % [2]: -0.013% | 2-PY (8.33 ppm), Saline/analog % [2]: -0.147% | 3-indoxylsulfate (7.51 ppm), Saline/analog % [2]: 0.120% | 3-indoxylsulfate (7.71 ppm), Saline/analog % [2]: 0.094% | 4-PY (7.97 ppm), Saline/analog % [2]: -0.055% | 4-PY (8.55 ppm), Saline/analog % [2]: -0.165% | DMA, Saline/analog % [2]: 0.025% | N-carbamoylalanine (2.38 ppm), Saline/analog % [2]: 0.014% | N-carbamoylalanine (3.31 ppm), Saline/analog % [2]: -0.045% | N-isovalerylglycine + oxovalerate (0.92 ppm), Saline/analog % [2]: 0.062% | TMA, Saline/analog % [2]: -0.159% | acetate, Saline/analog % [2]: 0.167% | allantoin, Saline/analog % [2]: 0.054% | carnitine, Saline/analog % [2]: 0.027% | choline, Saline/analog % [2]: 0.042% | cis-aconitate, Saline/analog % [2]: 0.015% | citrate (2.55 ppm), Saline/analog % [2]: -0.026% | citrate (2.69 ppm), Saline/analog % [2]: -0.034% | creatine+creatinine, Saline/analog % [2]: 0.043%

Source: paper PMC5562305, “Impact of novel palmitoylated prolactin-releasing peptide analogs on metabolic changes in mice with diet-induced obesity” (PLoS ONE, 2017)
